In PubChem BioAssay (NCI) one finds TGI and GI50 data, which are given here for 13 compounds.

Some test systems named below: OVCAR-3 ovarian; IGROV1 ovarian; HCC-2998 colon; CAKI-1 renal; SN12C renal; SK-MEL-5 melanoma; HT29 colon; SF-268 CNS; OVCAR-8 ovarian; SK-OV-3 ovarian.
Holding throughout (test): NCI anticancer screen, dose series, 48 h

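Protocol summary: plate cells (96-well), add compound at 5 concentrations, incubate 48 h, interpolate endpoints linearly. GI50 marks 50% less growth. The concentration for full growth arrest is given as TGI.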 Some results are limits rather than exact numbers.

Consider `Cc1ccc(S(=O)(=O)Nc2cccc3c(=O)[nH]cnc23)cc1`, for which the TGI in the assay with OVCAR-3 ovarian, in the assay with IGROV1 ovarian, with HCC-2998 colon, in the assay on CAKI-1 renal, in the assay with SN12C renal and with SK-MEL-5 melanoma was greater than 100 µM throughout. The TGI in the assay on HT29 colon, in the assay with SF-268 CNS, in the assay with OVCAR-8 ovarian and with SK-OV-3 ovarian was greater than 100 µM in each case.
As to `Cc1n(CC(C)C)c2c([n+]1C)C(=O)c1ccccc1C2=O`, the TGI with OVCAR-3 ovarian was 0.0961 µM; in the assay with IGROV1 ovarian, 0.101 µM; in the assay with HCC-2998 colon it was 1.53 µM; in the assay with CAKI-1 renal, greater than 21.7 µM; in the assay on SN12C renal it was 0.0671 µM; with SK-MEL-5 melanoma, 0.139 µM. Besides, the TGI in the assay with HT29 colon was determined as 1.03 µM; with SF-268 CNS, 0.155 µM; with OVCAR-8 ovarian it was 0.937 µM; in the assay on SK-OV-3 ovarian, 2.2 µM.
As to `Cc1ccc2c(ccc(/C=C/c3ccc(O)c4ncccc34)[n+]2C)c1`, the TGI in the assay with OVCAR-3 ovarian is 10.4 µM; with IGROV1 ovarian, 45.6 µM; in the assay with HCC-2998 colon it was 20.7 µM; in the assay on CAKI-1 renal it was 33.3 µM; in the assay with SN12C renal, 35.6 µM; in the assay on SK-MEL-5 melanoma, 35.3 µM. In addition, the TGI in the assay on HT29 colon was 27.7 µM; in the assay with SF-268 CNS it was 22 µM; in the assay with OVCAR-8 ovarian, 24 µM; with SK-OV-3 ovarian it was 34.3 µM.
`COC1OC(CS(=O)(=O)O)C(O)C(O)C1O` (centres undefined): the TGI in the assay on OVCAR-3 ovarian, with IGROV1 ovarian, with HCC-2998 colon, in the assay with CAKI-1 renal, with SN12C renal and in the assay on SK-MEL-5 melanoma was greater than 100 µM throughout. Moreover, the TGI in the assay on HT29 colon, in the assay on OVCAR-8 ovarian and in the assay on SK-OV-3 ovarian was greater than 100 µM in each case.
Regarding `CC1(C)[C@@H]2CC[C@]1(C)[C@H](OC(=O)CSC#N)C2`, the TGI in the assay with OVCAR-3 ovarian, with IGROV1 ovarian, in the assay on HCC-2998 colon, in the assay on CAKI-1 renal, in the assay with SN12C renal and in the assay on SK-MEL-5 melanoma was greater than 100 µM throughout. In addition, the TGI with HT29 colon, in the assay with SF-268 CNS, in the assay with OVCAR-8 ovarian and in the assay with SK-OV-3 ovarian was greater than 100 µM throughout.
With `O=S(=O)(O)c1ccc(N=Nc2ccc3c(S(=O)(=O)O)cccc3c2O)c2ccccc12`, the TGI in the assay with OVCAR-3 ovarian, with IGROV1 ovarian, in the assay with CAKI-1 renal, with SN12C renal, in the assay on SK-MEL-5 melanoma and with HT29 colon was greater than 100 µM each time. Also, the TGI in the assay with SF-268 CNS, in the assay with OVCAR-8 ovarian and with SK-OV-3 ovarian was greater than 100 µM in each case.
As for `N#C[S-].[La+3].c1cnc2c(c1)ccc1cccnc12.c1cnc2c(c1)ccc1cccnc12.c1cnc2c(c1)ccc1cccnc12`, the TGI turned out to be 19.2 µM in the assay with OVCAR-3 ovarian; 19.2 µM in the assay with IGROV1 ovarian; 18.8 µM with HCC-2998 colon; 12.7 µM in the assay with CAKI-1 renal; 16 µM in the assay with SN12C renal; 12.7 µM in the assay on SK-MEL-5 melanoma. In addition, the TGI stood at 18 µM with HT29 colon, 18.9 µM with SF-268 CNS, 11.5 µM with OVCAR-8 ovarian and 14.1 µM with SK-OV-3 ovarian.
For `O=C1C=C(C2OC(CO)C(O)C2O)C(=O)N1` (centres undefined), the TGI in the assay on OVCAR-3 ovarian, with IGROV1 ovarian, with HCC-2998 colon, in the assay with SN12C renal, with SK-MEL-5 melanoma and in the assay on HT29 colon was greater than 100 µM throughout. Further, the TGI with SF-268 CNS, in the assay on OVCAR-8 ovarian and in the assay on SK-OV-3 ovarian was greater than 100 µM in each case.
Regarding `C=C1C(=O)OC2/C=C(\C(=O)O)CC/C=C(\C)CC(OC(=O)/C=C(\C)CC)C12` (centres undefined), the TGI worked out at 30.8 µM with OVCAR-3 ovarian; 40.9 µM with IGROV1 ovarian; 33.8 µM with HCC-2998 colon; 54.1 µM in the assay on CAKI-1 renal; 31 µM with SN12C renal; 32.9 µM with SK-MEL-5 melanoma. For the same compound, the TGI with HT29 colon came to 30.1 µM; with SF-268 CNS, 30.6 µM; in the assay on OVCAR-8 ovarian, 33.9 µM; in the assay on SK-OV-3 ovarian, 37.9 µM.
With `O=C(c1ccccc1)c1ccc2n[se]nc2c1`, the TGI in the assay on IGROV1 ovarian was greater than 100 µM; in the assay with HCC-2998 colon it was 73.7 µM; in the assay with CAKI-1 renal it was greater than 100 µM; with SN12C renal it was greater than 100 µM; in the assay on SK-MEL-5 melanoma, greater than 100 µM; with HT29 colon, greater than 100 µM. Moreover, the TGI in the assay with SF-268 CNS, in the assay on OVCAR-8 ovarian and in the assay with SK-OV-3 ovarian was greater than 100 µM throughout.
With `CCCC(C)c1ccc(OCCCCCCN2CCNCC2)cc1` (centres undefined), the GI50 is 1.78 µM in the assay on OVCAR-3 ovarian; 1.92 µM in the assay on IGROV1 ovarian; 1.84 µM in the assay with HCC-2998 colon; 1.99 µM with CAKI-1 renal; 2.84 µM in the assay with SN12C renal; 1.67 µM in the assay with SK-MEL-5 melanoma. Further, the figures for the GI50 in the assay with HT29 colon, in the assay on SF-268 CNS and in the assay on SK-OV-3 ovarian were 1.66 µM, 2.97 µM and 2.57 µM, respectively. Besides, the TGI in the assay with OVCAR-3 ovarian worked out at 3.87 µM; with IGROV1 ovarian, 3.78 µM; in the assay on HCC-2998 colon, 3.28 µM; in the assay on CAKI-1 renal, 4.45 µM; in the assay with SN12C renal, 9.66 µM; in the assay on SK-MEL-5 melanoma, 3.1 µM. Also, the figures for the TGI in the assay with HT29 colon, in the assay on SF-268 CNS and in the assay on SK-OV-3 ovarian were 3.74 µM, 9.89 µM and 7.12 µM, respectively.
As for `OC(CC1CCCCN1)c1ccc2c(c1)oc1ccccc12` (centres undefined), the TGI in the assay with OVCAR-3 ovarian was greater than 100 µM; in the assay on IGROV1 ovarian it was greater than 100 µM; with HCC-2998 colon, greater than 100 µM; in the assay on CAKI-1 renal it was greater than 100 µM; in the assay with SN12C renal, greater than 100 µM; with SK-MEL-5 melanoma, 34.1 µM. Further, the TGI in the assay on HT29 colon, in the assay with SF-268 CNS, with OVCAR-8 ovarian and in the assay with SK-OV-3 ovarian was greater than 100 µM each time.
Take `CN(C)/C=C/C(=CC=[N+](C)C)/C=C/N(C)C`: the TGI with OVCAR-3 ovarian, in the assay on IGROV1 ovarian, with HCC-2998 colon, with CAKI-1 renal, in the assay on SN12C renal and in the assay on SK-MEL-5 melanoma was greater than 100 µM each time. For the same compound, the TGI in the assay with HT29 colon, with SF-268 CNS, in the assay on OVCAR-8 ovarian and with SK-OV-3 ovarian was greater than 100 µM each time.
